Data on 88 compounds can be found in a melting point compilation (Tetko et al.; mined from patent text by program, amines drawn as free bases though some values may be those of a salt).

A value given as a limit tells only on which side of the number the result lay.

In general, melting point refers to the temperature, or range, at which the solid turns liquid. `ClCc1coc(-c2ccc(Cl)s2)n1` came in with a melting point of 90 to 91 °C. With `COc1ccc2[nH]c3c(c2c1)CCN1CN(C)CCC31` (stereo not drawn), the melting point lay within 199 to 200 °C. The value for `CCC(CC)n1nnc2cc(C)c(C)c([N+](=O)[O-])c21` was 106 to 108 °C.

`O=C(O)C(c1ccccc1)N1C(=O)c2cc(Cl)c(Cl)cc2C1=O` (stereo not drawn) yielded a melting point of 228 to 232 °C. For the compound `CC(=O)Oc1cc(OC(C)=O)c2ccccc2c1OC(C)=O`, the melting point lay within 136 to 137 °C.

`O=CC(CC(=O)c1ccccc1)(c1ccccc1)c1ccccc1` gave a melting point of 125 to 127 °C. `COc1ccc2cc(C(=O)CCCCCCC(=O)O)ccc2c1` displayed a melting point of 148 to 149 °C. The value for `CCOc1ccc(Nc2ncc(C(=O)O)c(=O)[nH]2)cc1OCC` was 243 to 245 °C; that for `O=C(NCCCc1ccncc1)N(CCC12CC3CC(CC(C3)C1)C2)Cc1ccccc1` was 130 to 135 °C; that for `COc1cc2c(cc1OC)C(=O)C(N1CCC(n3c(=O)[nH]c4ccccc43)CC1)CC2` (stereo not drawn) was 238 to 239 °C.

For the compound `CCc1nc2c(N)nc3ccccc3c2n1CCOCCNC(=O)N1CCOCC1`, the melting point was 182 to 184 °C. With `Cc1c(F)c(N2CCC(N)C2)nc2c1c(=O)c(C(=O)O)cn2-c1ccc(F)cc1F` (stereo not drawn), the melting point was found to be 260 °C. Regarding `C=CCOc1ccc2c(C)c(C(=O)C=Cc3cc(OC)c(OC)c(OC)c3)c(=O)oc2c1`, the melting point is 138 to 140 °C. The value for `COc1ccc(OCC2CCC(CBr)CC2)c(Cl)c1` (stereo not drawn) was 74 to 78 °C; that for `Cc1cc([N+](=O)[O-])c(Cl)c([N+](=O)[O-])c1C` was 109 to 111 °C.

Compound `O=C(CCc1ccccc1)CN1C(=O)CC1S(=O)Cc1ccccc1` (stereo not drawn) gave a melting point of 110 to 111 °C. `Nc1cccc(Cc2cc(O)ccc2O)c1` returned a melting point of 151 to 152 °C.

Turning to `CCCCNC(=O)[C@H](C)C[C@H](O)[C@H](CC1CCCCC1)NC(=O)[C@H](Cc1cscn1)NC(=O)[C@@H](CC(=O)N1CCOCC1)Cc1ccccc1`, the melting point lay in the range of 162 to 163 °C.

With `CCOC(=O)CC[C@H](NC(=O)c1ccc(N)c(F)c1)C(=O)OCC`, the melting point was 92 to 97 °C.

`COc1ccc([C@H]2CC[C@H](c3ccc(OC)c(OC)c3)S2)cc1OC` (relative stereo) came in with a melting point of 103 to 105 °C. For `CC(SC1COC(c2ccc(C(=O)Nc3ccc(SC(F)(F)F)cc3)cc2)OC1)C(O)(Cn1cncn1)c1ccc(F)cc1F` (stereo not drawn), the melting point worked out at 95 °C. `CC(=O)c1cc(N2CCOCC2)ccc1NC(=O)c1ccc(OCc2ccccc2)cc1` gave a melting point of 172 to 175 °C.

`CCOC(=O)C1=C(C)NC(CSC(=N)N)=C(C(=O)OCC)C1c1cccc([N+](=O)[O-])c1` (single isomer, unassigned; (+)) registered a melting point of 124 to 126 °C. The value for `CCCCC(CC)COC(=O)CC(C(=O)OCC(CC)CCCC)S(=O)(=O)O` (stereo not drawn) was 70 °C.

In turn, `CCN(C(=O)Nc1ccc(OC(F)(F)F)cc1)C1Cc2ccc(SC(C)(C)C(=O)O)cc2C1` (stereo not drawn) registered a melting point of 73 to 77 °C. `CCCCc1nc2ncncc2n1Cc1ccc2oc(-c3ccccc3-c3nnn[nH]3)c(Br)c2c1` returned a melting point of 211 to 213 °C. With `CCN(Cc1ccc(Cl)cc1Cl)C(=O)n1oc(C)c(Cl)c1=O`, the melting point was in the range of 80.5 to 81.5 °C. For the compound `Cc1cc(NC(=S)Nc2cc(Cl)ccc2C)sn1`, the melting point was in the range of 187 to 188 °C. As for `COC(=O)c1c(O)cc(OCC(O)c2ccc3c(c2)C(C)(C)CCC3(C)C)cc1O` (stereo not drawn), the melting point was 127 to 128 °C. The compound `CCOC(=O)C(C(=O)CC)C(=O)OCC` showed a melting point of 89 to 93 °C. The compound `CNC(=O)n1nc(Oc2c(Cl)cc(C(F)(F)F)cc2Cl)c(Cl)c1C` gave a melting point of 125 to 127 °C. Compound `CO[C@H]1C(=O)N(S(C)(=O)=O)[C@H]2CCN(C(=O)OCc3ccccc3)[C@H]12` (relative stereo) returned a melting point of 146 to 149 °C. On to `C#C/C(=C\c1cccnc1)c1c[nH]c2ccc(OC)cc12`, for which the melting point was 136 °C. As to `CC(C)(C)OC(=O)N1CCC(Nc2ncc3c(n2)-c2ccccc2C(c2ccc(Cl)c(Cl)c2)C3)CC1` (stereo not drawn), the melting point lay in the range of 94 to 96 °C. In the case of `C=CC(=O)N1CCc2cc(OC)c(OC)cc2C12CCC(C(=O)OCC)(C(=O)OCC)CC2`, the melting point was in the range of 131 to 134 °C. The value for `O=c1c(Cl)c(-c2ccc(F)cc2)c1=O` was 113 to 115 °C.

For the compound `CC(c1oc2ccccc2c(=O)c1-c1cccc(F)c1)n1nc(-c2ccc3c(c2)OCCCO3)c2c(N)ncnc21` (stereo not drawn), the melting point lay within 234 to 237 °C. `COC(=O)c1nccnc1Nc1ccccc1` displayed a melting point of 72 to 75 °C.

`CC12CCC3c4ccc(OCc5ccccc5)c([N+](=O)[O-])c4CCC3C1CCC2=O` (stereo not drawn): the melting point is 198 to 199 °C.

Regarding `CCOC(=O)c1cn(-c2cc([N+](=O)[O-])c(F)cc2F)c2cc(F)c(F)cc2c1=O`, the melting point lay within 165 to 173 °C.

In turn, `Cc1nc[nH]c1CSCCN=C(NC#N)NCCc1c[nH]cn1` yielded a melting point of 170 to 171 °C. In the case of `Oc1ccc(C2(c3ccc(O)cc3)c3ccccc3C(c3ccc(O)cc3)(c3ccc(O)cc3)c3ccccc32)cc1`, the melting point lay within 208 to 209 °C.

`O=[N+]([O-])c1ccc(Oc2ccccc2)c(Cl)c1NCc1ccc(Cl)cc1` registered a melting point of 75 to 76 °C. The value for `O=C1c2ccccc2-n2cnc(Br)c2[C@@H]2CCCN12` was 225 to 226 °C; that for `CC1(CN2CCN(c3cccccc3=O)CC2)NC(=O)NC1=O` (stereo not drawn) was 231 to 232 °C.

In turn, `Oc1cccc(-c2nc3ccccc3s2)c1` registered a melting point of 110 °C. The value for `CC(C)Cn1c(=O)n(C)c(=O)c2cnc(N)nc21` was 249 to 250 °C; that for `CCN(C(=O)c1ccccc1-c1ccccc1)C(C)(C)c1ccccc1` was 121 to 122 °C. The value for `CCc1cn2ccccc2c1S(=O)(=O)c1ccc(OCCCn2ccnc2)cc1` was 130 to 131 °C; that for `NC(=O)Cc1ccc2noc(-c3ccc(Cl)cc3)c2c1` was 242 to 244 °C; that for `COC(=O)c1csc(NC(=O)c2ccc(C#N)cc2)n1` was 228 °C. `CCOC(=O)c1c(Cn2cncn2)nc2cc(OC)c(OC)cc2c1-c1ccc(OC)cc1`: the melting point was 150 to 151 °C. In turn, `CC(C)(C)OC(=O)C(CNC(=O)c1ccc(O)cc1)NC(=O)OCc1ccccc1` (stereo not drawn) displayed a melting point of 69 °C. Compound `CCCN(C(=S)n1ccnc1)c1ccccc1Cl` yielded a melting point of 59 to 61 °C. `O=C(O)c1ccc(CC2(C(=O)O)CCCN2C(=O)Nc2cc(Cl)cc(Cl)c2)cc1` (stereo not drawn) returned a melting point of 145 °C. As to `O=C1C(Cl)=C(NC2CCCC2)C(=O)c2ccccc21`, the melting point was 81 to 83 °C. Turning to `CC(C)(C)c1cc(-c2nc3n(c2SC#N)CCS3)cc(C(C)(C)C)c1O`, the melting point lay in the range of 178 to 179 °C. The compound `CC(C)OC(=O)N1CCC(c2nc3cc(-c4ccc(C(N)=O)c(Cl)c4)ccc3o2)CC1` gave a melting point of 178 to 181 °C. `C[Si](C)(C)c1ccc2cc(C(=O)Nc3ccc(N4CCC4)nc3)n(Cc3cccc(F)c3)c2c1` displayed a melting point of 208 to 210 °C. `Cc1ccc(C#N)c(NC(C)C)c1` registered a melting point of 55 to 57 °C. In turn, `NS(=O)(=O)c1ccc(-c2cccc(-c3nc(-c4ccc(F)cc4)cc(C(F)(F)F)n3)c2)s1` had a melting point of 228 °C.

For `COc1cc(OC)cc(-c2ncoc2-c2ccc(N)cc2)c1`, the melting point was 142 to 146 °C. In turn, `CC(C)c1[nH][nH]c(=O)c1Cc1ccc2ccccc2c1` displayed a melting point of 143 to 145 °C. The value for `COc1cc2c(cc1OC)CN(CCCOc1ccc([N+](=O)[O-])cc1)CC2` was 100 °C. The value for `CN(C)c1cc(CC(C#N)=CNc2ccccc2)cc(N(C)C)c1C(C)(C)C` was 150 °C; that for `O=C(NCc1ccccc1)c1ccnc(NC(=O)c2ccc(F)cc2)c1` was 170 to 171 °C. On to `Cn1ncnc1COc1cc(N)c2cnn(-c3ccccc3)c2n1`, for which the melting point lay within 164 to 166 °C. For the compound `CS(=O)(=O)Nc1ccc(F)c(C(O)CN)c1` (stereo not drawn), the melting point lay within 176 to 179 °C.

As to `CC(=NO)c1ccnc(N(C)C)c1`, the melting point lay within 145 to 148 °C. Turning to `CCCCSc1c2sc3ccccc3nc-2ccc1=O`, the melting point amounted to 72 °C.

As for `O=C(Nc1cscn1)C(F)(F)F`, the melting point lay within 138 to 139 °C. The value for `Cc1c(Br)cc(Cl)c(NS(=O)(=O)c2n[nH]c(NC=O)n2)c1Cl` was more than 290 °C.

As for `O=S(=O)(Cc1ccccc1)c1cccc2c1ccn2-c1ccnc(N[C@H]2CC[C@H](O)CC2)n1`, the melting point was 132 to 134 °C.

As to `COc1ccc2[nH]c(C(N)=O)cc2c1`, the melting point was 204 to 205 °C. In the case of `CNC1=Nc2ccc(Cl)cc2N(c2ccccc2)C(=O)C1`, the melting point was in the range of 215 to 217 °C. `COc1ccc(Cl)cc1C(=O)Cl` returned a melting point of 59 to 60 °C. Turning to `CCc1[nH]n(-c2c(Cl)cc(Cl)cc2Cl)c2nc(Cc3cccc(OC)c3)nc(=O)c1-2`, the melting point fell in the range of 235 to 238 °C. For the compound `CN1CCN(c2cc3c(Cl)cccc3c(=O)[nH]2)CC1`, the melting point lay in the range of 230 to 231 °C.

The compound `[N-]=[N+]=NCc1ccc(C(=O)c2c(Cl)cccc2Cl)cc1` had a melting point of 92 to 94 °C.

As to `Cc1cc(C)c(C)c(-c2cc3cnc(N)nc3nc2N)c1C`, the melting point lay within 327 to 331 °C. For the compound `c1ccc(CCN2CCN(c3n[nH]c4ccccc34)CC2)cc1`, the melting point fell in the range of 118 to 120 °C. Take `CC(C)(C)OC(=O)N1CCC[C@H]1COc1cnc(Cl)c(-c2ccc(Cl)cc2)c1`: the melting point was in the range of 86 to 89 °C. Compound `Cc1cc(O)ccc1-c1nn(CC(C)C)c2c(F)cccc12` yielded a melting point of 126 to 128 °C. `CCOC(=O)C(C(=O)OCC)c1cccc(C(=O)c2ccc(Cl)cc2)c1[N+](=O)[O-]` yielded a melting point of 96 to 100 °C. In the case of `CC(C)(C)c1cc2c(c(-c3nc4ncccc4o3)c1)CCC2`, the melting point lay in the range of 198 to 200 °C.

`CCCCCCCN=C1SC(=CC(=O)O)C(=O)N1CCCCCCC`: the melting point lay within 80 to 81 °C.

In turn, `Fc1cc(Cl)c(OC(F)F)cc1-n1nc2c(c1Cl)CCCC2` registered a melting point of 83 to 85 °C. In turn, `C#CC1(OC(C)=O)CCC2C3CCc4cc(OC)ccc4C3CCC21CC` (stereo not drawn) registered a melting point of 178 to 182 °C.
